target: HIV protease (Human immunodeficiency virus type 1 group M subtype B, UniProt P04585); assay: Test for inhibition of the HIV protease; type: biochemical; conditions: carried out as described in EP 0 428 849 A2, read-out: IC50 (concentration at which the activity of the enzyme is halved)
Procedure: 24) Test for inhibition of the HIV protease
The test for inhibition of the HIV protease was carried out as described in EP 0 428 849 A2. The following IC50 values indicate the concentration at which the activity of the enzyme is halved;

Compared with `O=C1N(Cc2ccc3ccccc3c2)[C@@H](Cc2ccccc2)P(=O)(O)[C@H](Cc2ccccc2)N1Cc1ccc2ccccc2c1` (relative stereo) [Example 19, 2,6-Dibenzyl-3,5-(2-naphthylmethyl)-1-hydroxy-3,5-diaza-4-oxophosphorinane-1-oxide (racemate composed of [2S,6S] and [2R,6R])], `O=C1N(Cc2ccccc2)[C@@H](Cc2ccccc2)P(=O)(O)[C@@H](Cc2ccccc2)N1Cc1ccccc1` [Example 10, ([2R],3,5,[6S])-Tetrabenzyl-1-hydroxy-3,5-diaza-4-oxophosphorinone-1-oxide] is 160-fold higher in IC50: 0.32 µM for the first, 50 µM for the second. The first is the more potent here.

First: O=C1N(Cc2ccc(CO)cc2)[C@@H](Cc2ccccc2)P(=O)(O)[C@H](Cc2ccccc2)N1Cc1ccc(CO)cc1 (relative stereo) [Example 23, ([2R],[6S])-Dibenzyl-3,5-(4-hydroxymethylbenzyl)-1-hydroxy-3,5-diaza-4-oxophosphorinane-1-oxide (racemate composed of [2S,6S] and [2R,6R])]
Second: O=C1N(Cc2ccc(CO)cc2)[C@@H](Cc2ccccc2)P(=O)(O)[C@@H](Cc2ccccc2)N1Cc1ccc(CO)cc1 [Example 12, ([2R],[6S])-Dibenzyl-3,5-(4-hydroxymethylbenzyl)-1-hydroxy-3,5-diaza-4-oxophosphorinone-1-oxide]
The IC50 of the first is 20-fold lower: 0.24 µM for the first, 4.8 µM for the second.

In the case of `O=C1N(Cc2ccc(CBr)cc2)[C@@H](Cc2ccccc2)P(=O)(O)[C@@H](Cc2ccccc2)N1Cc1ccc(CBr)cc1` [Example 13, ([2R],[6S])-Dibenzyl-3,5-(4-bromomethylbenzyl)-1-hydroxy-3,5-diaza-4-oxophosphorinone-1-oxide], the IC50 is reported as 18 µM.
